Experimental data published in patent US20140256771A1, “COMPOUNDS THAT MODULATE INTRACELLULAR CALCIUM” (CalciMedica, Inc., priority 2011, published 2014).
Like-named read-outs stand apart in the source and are kept apart here.

How the values were obtained:
Orai1/STIM1 = biological target: T1, Orai1/STIM1 (Homo sapiens, UniProt Q96D31); assay: Fluorescence-based assay of store-operated calcium entry in Orai1/STIM1 stable cells; type: cell-based; conditions: HEK-293 cells stably expressing human STIM1 and Orai1, 50% inhibition of Peak-Basal fluo-4 signal, read-out: Orai1/STIM1 (IC50, μmol)
T1 construct: expressed in transfected cells; host or cells: HEK-293
Description: A. Fluorescence-based Assay of Store-Operated Calcium Entry in Orai1/STIM1 Stable Cells.
Cells stably expressing recombinant human STIM1 and Orai1 are generated by transfecting a human Orai1 expression plasmid (pcDNA3.1-Orai1-cmyc) into HEK-293 cells stably overexpressing human STIM1 (Roos et al. 2005 JCB 169(3): 435-445). Colonies of cells stably expressing both STIM1 and Orai1 proteins are selected and then subcloned by limiting dilution. Cells were cultured at 37° C./6% CO2 in complete medium with 10% FBS and appropriate selection markers.
The day prior to performing the assay Orai1/STIM1 stable cells are plated in 50 μL of complete medium at 90-95% confluence in a 384 well plate. Cells are grown at 37° C./6% CO2 overnight. On the day of the assay, 1.5 μM fluo-4-AM (Invitrogen) in complete medium is added to the cells, which are then incubated for 1 hour at RT. Cells are washed once in Ca^2+-free HBSS (Hank's buffered saline solution) and 35 μl of Ca^2+-free HBSS is added to each well. Test compounds are added to wells in a 10 μL Ca^2+-free HBSS solution, prepared at 4.5× the desired final concentration, and incubated for 30 minutes at RT. The initial baseline fluorescence signal is then measured with a FLIPR^384 (Molecular Devices) plate reader. Calcium entry is initiated by adding 5 μl of 10× CaCl2 (10 mM) in HBSS, and changes in cellular fluorescence are measured with the FLIPR^384 plate reader. In each well, the magnitude of the fluorescence signal as a result of calcium entry into the cell is determined by calculating the difference between the peak fluorescence signal measured after calcium addition and the initial baseline fluorescence signal (designated Peak-Basal). IC50 values are typically calculated as the concentration that inhibited 50% of the Peak-Basal signal (Table A).

RBL-2H3 cells = assay: Fluorescence-based assay of store-operated calcium entry in RBL-2H3 cells; type: cell-based, rat; conditions: Rattus norvegicus, RBL-2H3, thapsigargin store depletion, 50% inhibition of Upslope, read-out: RBL-2H3 (IC50, μmol)
Description: B. Fluorescence-based Assay of Store-Operated Calcium Entry in RBL-2H3Cells.
RBL-2H3 cells are obtained from ATCC and maintained in complete medium with 10% FBS at 37° C./6% CO2.
The day prior to performing the assay, RBL-2H3 cells are plated in 50 μL of complete medium in a 384 well plate. Cells are grown at 37° C./6% CO2 overnight and grow to 50-60% confluence by the next day. On the assay day, 1.5 μM Fluo-4-AM dye (Invitrogen) in complete medium is added and incubated for 1 hour at RT. Cells are washed twice in Ca^2+-free HBSS buffer and 35 μL Ca^2+-free HBSS buffer is added to each well. 10 μL of a test compound prepared in a Ca^2+-free HBSS solution at 4.5× of the desired concentration is added to a well and incubated for 5 minutes at RT. 10 μL of thapsigargin prepared in a Ca^2+-free HBSS solution at 5.5× of the desired concentration (5.5 uM) is added to each well and incubated for an additional 25 minutes. The initial baseline fluorescence signal is measured with a FLIPR^384 (Molecular Devices) plate reader. 5 μL of 12× calcium in HBSS (12 mM) is added and changes in cellular fluorescence are measured with the FLIPR^384 plate reader. In each well, the change in the fluorescent signal as a function of time due to calcium entry into the cell is determined by calculating the difference between the fluorescent signal measured 7 seconds after calcium addition and the initial baseline fluorescence signal at time zero (t=0). This parameter is designated Upslope. The IC50 value is calculated as the concentration at which 50% of the Upslope is inhibited.

T1 sequence (Q96D31 whole entry): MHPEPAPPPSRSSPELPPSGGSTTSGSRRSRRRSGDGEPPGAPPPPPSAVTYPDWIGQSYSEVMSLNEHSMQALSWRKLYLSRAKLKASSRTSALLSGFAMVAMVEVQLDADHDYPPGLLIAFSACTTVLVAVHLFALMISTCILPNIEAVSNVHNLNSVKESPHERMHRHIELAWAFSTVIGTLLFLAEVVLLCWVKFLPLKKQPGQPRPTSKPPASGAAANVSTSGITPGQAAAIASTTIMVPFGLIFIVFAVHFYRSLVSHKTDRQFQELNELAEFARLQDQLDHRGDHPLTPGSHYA

Row | IC50 (Orai1/STIM1; Table iv) [nM] | IC50 (RBL-2H3 cells; Table iv) [nM] | IC50 (Orai1/STIM1; Table iii) [nM] | IC50 (RBL-2H3 cells; Table iii) [nM] | SMILES
1 | < 600 | < 600 | – | – | Cc1nn(C(F)F)cc1-c1ccc(NC(=O)c2c(F)cccc2F)cc1
2 | – | – | < 600 | < 600 | Cc1nn(C(F)F)cc1-c1ccc(NCc2ccccc2F)cc1F
3 | – | – | 600 to 1200 | < 600 | Cn1nc(C(F)(F)F)cc1-c1ccc(NCc2cncc(F)c2)cc1F
4 | – | – | > 1200 | < 600 | Cc1cc2c(cc1-c1ccc(NCc3ccccc3F)cc1F)OC(F)(F)O2
5 | < 600 | < 600 | – | – | Cn1nc(C(F)(F)F)cc1-c1ccc(NC(=O)c2ccncc2F)cc1F
6 | – | – | 600 to 1200 | < 600 | CCn1nc(C(F)(F)F)cc1-c1ccc(NCc2c(F)cccc2F)cc1F
7 | < 600 | < 600 | – | – | Cc1cccc(F)c1C(=O)Nc1ccc(-c2nc(C(F)(F)F)sc2C)cc1
8 | – | – | < 600 | < 600 | Cn1nc(C(F)(F)F)cc1-c1ccc(NCc2ccc(F)cc2F)cc1
9 | < 600 | < 600 | – | – | Cn1nc(C(F)(F)F)cc1-c1ccc(NC(=O)c2c(F)ccc(F)c2F)cc1
10 | – | – | 600 to 1200 | < 600 | Cc1cc(F)ccc1CNc1ccc(-n2nc(C(F)(F)F)cc2C)c(F)c1
11 | 600 to 1200 | < 600 | – | – | Cc1cc2c(cc1-c1ccc(NC(=O)c3ccccc3F)cc1)OC(F)(F)O2
12 | – | – | < 600 | < 600 | Cn1nc(C(F)(F)F)cc1-c1ccc(NCc2c(F)cc(F)cc2F)cc1
13 | < 600 | < 600 | – | – | Cc1cc(F)ccc1C(=O)Nc1ccc(-c2cc(C(F)F)nn2C)c(F)c1
14 | – | – | < 600 | < 600 | Cc1cc2c(cc1-c1ccc(NCc3c(F)cncc3F)cc1)OC(F)(F)O2
15 | – | – | 600 to 1200 | < 600 | Cc1cc2c(cc1-c1ccc(NCc3cncc(F)c3)cc1)OC(F)(F)O2
16 | > 1200 | < 600 | – | – | Cc1cc2c(cc1-c1ccc(NC(=O)c3c(F)cncc3F)cc1)OC(F)(F)O2
17 | < 600 | 600 to 1200 | – | – | Cn1nc(C(F)(F)F)cc1-c1ccc(NC(=O)c2cncc(F)c2)cc1F
18 | > 1200 | < 600 | – | – | O=C(Nc1ccc(-n2nc(C(F)(F)F)cc2C(F)(F)F)cc1)c1c(F)cncc1F
19 | < 600 | < 600 | – | – | Cn1nc(C(F)(F)F)cc1-c1ccc(NC(=O)c2c(F)cccc2F)cc1
20 | 600 to 1200 | < 600 | – | – | O=C(Nc1ccc(-n2nc(C(F)(F)F)cc2C(F)(F)F)cc1)c1ccncc1F

Row | IC50 (Orai1/STIM1; Table iv) [nM] | IC50 (RBL-2H3 cells; Table iv) [nM] | IC50 (Orai1/STIM1; Table iii) [nM] | IC50 (RBL-2H3 cells; Table iii) [nM] | SMILES
21 | – | – | < 600 | < 600 | Cn1nc(C(F)(F)F)cc1-c1ccc(NCc2c(F)cccc2F)c(F)c1
22 | – | – | 600 to 1200 | < 600 | CCn1nc(C(F)(F)F)cc1-c1ccc(NCc2c(F)cc(F)cc2F)cc1F
23 | – | – | < 600 | < 600 | Cc1nc(C(F)(F)F)cn1-c1ccc(NCc2c(F)ccc(F)c2F)cc1
24 | – | – | < 600 | < 600 | Cn1nc(C(F)(F)F)cc1-c1ccc(NCc2c(F)cncc2F)cc1F
25 | < 600 | < 600 | – | – | Cc1cccc(F)c1C(=O)Nc1ccc(-c2cc(C(F)(F)F)nn2C)c(F)c1
26 | < 600 | < 600 | – | – | Cn1nc(C(F)(F)F)cc1-c1ccc(NC(=O)c2c(F)cncc2F)cc1F
27 | > 1200 | < 600 | – | – | Cc1cc(F)ccc1C(=O)Nc1ccc(-n2cc(C(F)(F)F)nc2C)c(F)c1
28 | – | – | > 1200 | < 600 | Cc1cc2c(cc1-c1ccc(NCc3c(F)cccc3F)cc1)OC(F)(F)O2
29 | 600 to 1200 | < 600 | – | – | Cc1cc2c(cc1-c1ccc(NC(=O)c3scnc3C)cc1)OC(F)(F)O2
30 | 600 to 1200 | < 600 | – | – | Cc1cc(F)ccc1C(=O)Nc1ccc(-n2nc(C(F)(F)F)cc2C)c(F)c1
31 | – | – | 600 to 1200 | < 600 | Cc1cc(C(F)(F)F)nn1-c1ccc(NCc2ccc(F)cc2F)cc1
32 | > 1200 | < 600 | – | – | Cc1nc(C(F)(F)F)cn1-c1ccc(NC(=O)c2ccccc2F)cc1F
33 | – | – | < 600 | < 600 | CCn1nc(C(F)(F)F)cc1-c1ccc(NCc2ccccc2F)cc1F
34 | > 1200 | < 600 | – | – | Cc1cc2c(cc1-c1ccc(NC(=O)c3ccccc3F)cc1F)OC(F)(F)O2
35 | 600 to 1200 | 600 to 1200 | – | – | Cc1nn(C(F)F)cc1-c1ccc(NC(=O)c2ccccc2F)cc1
36 | 600 to 1200 | < 600 | – | – | CCn1nc(C(F)(F)F)cc1-c1ccc(NC(=O)c2c(F)cc(F)cc2F)cc1F
37 | – | – | < 600 | < 600 | Cc1cccc(F)c1CNc1ccc(-c2cn(C(F)F)nc2C)c(F)c1
38 | 600 to 1200 | < 600 | – | – | Cc1cccc(F)c1C(=O)Nc1ccc(-c2cn(C(F)F)nc2C)cc1
39 | 600 to 1200 | < 600 | – | – | Cc1cc2c(cc1-c1ccc(NC(=O)c3ccncc3F)cc1)OC(F)(F)O2
40 | > 1200 | 600 to 1200 | – | – | Cc1nc(C(F)(F)F)cn1-c1ccc(NC(=O)c2c(F)cccc2F)cc1F

Row | IC50 (Orai1/STIM1; Table iv) [nM] | IC50 (RBL-2H3 cells; Table iv) [nM] | IC50 (Orai1/STIM1; Table iii) [nM] | IC50 (RBL-2H3 cells; Table iii) [nM] | SMILES
41 | – | – | < 600 | < 600 | Cc1nc(C(F)(F)F)cn1-c1ccc(NCc2ccccc2F)cc1
42 | – | – | < 600 | < 600 | Cn1nc(C(F)(F)F)cc1-c1ccc(NCc2ccc(F)cc2F)cc1F
43 | – | – | > 1200 | < 600 | Cc1cc2c(cc1-c1ccc(NCc3c(F)cccc3F)cc1F)OC(F)(F)O2
44 | – | – | > 1200 | 600 to 1200 | Cc1nnsc1CNc1ccc(-c2cc(C(F)(F)F)nn2C)c(F)c1
45 | – | – | 600 to 1200 | < 600 | Cc1cc(F)ccc1CNc1ccc(-c2cc(C(F)F)nn2C)c(F)c1
46 | – | – | < 600 | < 600 | Cc1nc(C(F)(F)F)cn1-c1ccc(NCc2ccccc2F)cc1F
47 | 600 to 1200 | < 600 | – | – | Cc1nnsc1C(=O)Nc1ccc(-n2nc(C(F)(F)F)cc2C)cc1
48 | < 600 | < 600 | – | – | Cc1nn(C(F)F)cc1-c1ccc(NC(=O)c2c(F)cc(F)cc2F)cc1
49 | 600 to 1200 | < 600 | – | – | Cc1cc(C(F)(F)F)nn1-c1ccc(NC(=O)c2c(F)cc(F)cc2F)cc1
50 | < 600 | < 600 | – | – | Cn1nc(C(F)(F)F)cc1-c1ccc(NC(=O)c2c(F)cccc2F)cc1F
51 | < 600 | < 600 | – | – | Cc1nn(C(F)F)cc1-c1ccc(NC(=O)c2c(F)cc(F)cc2F)cc1F
52 | – | – | 600 to 1200 | < 600 | Cc1cc(C(F)(F)F)nn1-c1ccc(NCc2c(F)cncc2F)cc1
53 | – | – | < 600 | < 600 | Cn1nc(C(F)(F)F)cc1-c1ccc(NCc2c(F)ccc(F)c2F)cc1F
54 | – | – | < 600 | < 600 | Cc1sc(C(F)(F)F)nc1-c1ccc(NCc2c(F)cccc2F)cc1
55 | – | – | < 600 | < 600 | Cc1cccc(F)c1CNc1ccc(-c2cc(C(F)(F)F)nn2C)c(F)c1
56 | – | – | 600 to 1200 | < 600 | Cc1cc2c(cc1-c1ccc(NCc3c(F)cncc3F)cc1F)OC(F)(F)O2
57 | – | – | < 600 | < 600 | Cc1sc(C(F)(F)F)nc1-c1ccc(NCc2ccccc2F)cc1
58 | > 1200 | < 600 | – | – | Cc1nc(C(F)(F)F)cn1-c1ccc(NC(=O)c2c(F)ccc(F)c2F)cc1
59 | < 600 | < 600 | – | – | CCn1nc(C(F)(F)F)cc1-c1ccc(NC(=O)c2ccccc2F)cc1
60 | < 600 | < 600 | – | – | Cc1sc(C(F)(F)F)nc1-c1ccc(NC(=O)c2ccccc2F)cc1
